By melting point is commonly meant the temperature, or range, at which the solid turns liquid. The term IC50 denotes the concentration that inhibits the measured activity by half.

Residue numbers refer to the chain shown, from its start. Like-named read-outs stand apart in the source and are kept apart here.

One series has as its target T1, FLT3 wild type (Homo sapiens, UniProt P36888).
T1 construct: purchased Reaction Biology Corp. (Kinase HotSpot service)
T1 sequence (P36888 27-993): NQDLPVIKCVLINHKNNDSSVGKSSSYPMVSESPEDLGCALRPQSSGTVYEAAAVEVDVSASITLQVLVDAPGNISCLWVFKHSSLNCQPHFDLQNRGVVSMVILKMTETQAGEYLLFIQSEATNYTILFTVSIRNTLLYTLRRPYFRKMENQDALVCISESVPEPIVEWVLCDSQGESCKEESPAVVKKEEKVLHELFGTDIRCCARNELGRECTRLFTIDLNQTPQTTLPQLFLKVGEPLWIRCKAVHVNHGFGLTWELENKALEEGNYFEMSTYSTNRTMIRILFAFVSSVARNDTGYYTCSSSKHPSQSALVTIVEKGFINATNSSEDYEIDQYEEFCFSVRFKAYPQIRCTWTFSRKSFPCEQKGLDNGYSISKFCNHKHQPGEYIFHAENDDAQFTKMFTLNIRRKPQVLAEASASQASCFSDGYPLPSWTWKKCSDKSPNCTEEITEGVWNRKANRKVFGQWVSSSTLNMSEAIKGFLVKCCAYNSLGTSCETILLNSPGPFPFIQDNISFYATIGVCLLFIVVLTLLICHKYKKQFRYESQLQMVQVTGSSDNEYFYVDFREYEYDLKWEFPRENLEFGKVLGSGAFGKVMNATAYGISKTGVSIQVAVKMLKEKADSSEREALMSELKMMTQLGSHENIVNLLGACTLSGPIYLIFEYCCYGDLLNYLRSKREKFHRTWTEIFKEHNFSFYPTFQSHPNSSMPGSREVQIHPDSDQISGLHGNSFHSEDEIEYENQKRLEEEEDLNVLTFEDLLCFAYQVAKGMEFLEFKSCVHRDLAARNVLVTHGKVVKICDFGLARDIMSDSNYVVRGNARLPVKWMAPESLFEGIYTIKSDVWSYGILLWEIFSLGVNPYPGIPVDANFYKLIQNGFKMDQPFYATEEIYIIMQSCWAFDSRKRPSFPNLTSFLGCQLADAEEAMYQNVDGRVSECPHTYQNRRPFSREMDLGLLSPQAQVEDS
Nature of the series: Reaction Biology Kinase HotSpot radiometric kinase assay. Type of series: biochemical. The note with it: ATP 10 µM. The source says:
(§1) (specific activity approx. 500 cpm/pmol, concentration as required).

The target of the next series is T2, FLT3 (D835Y) (Homo sapiens, UniProt P36888, D835Y).
T2 construct: purchased Reaction Biology Corp. (Kinase HotSpot service)
T2 sequence (P36888 27-993 D835Y): T1 sequence (P36888 27-993) with D809Y
The series is described as above. The class given is biochemical.
Excerpt: as §1

The compound `CC(C)(C)c1cc(C(=O)Nc2ccc3[nH]c(-c4ccc5cn[nH]c5c4)nc3c2)no1` [8h, N-(2-(1H-Indazol-6-yl)-1H-benzo[d]imidazol-5-yl)-5-(tert-butyl)isoxazole-3-carboxamide] registered a melting point of 147 to 149 °C. At FLT3 wild type (read-out: FLT3 IC50), the IC50 amounted to 0.702 µM. The IC50 at FLT3 (D835Y) was found to be 0.082 µM.

Compound `CCN1CCN(c2cc(C(=O)Nc3ccc4[nH]c(-c5ccc6cn[nH]c6c5)nc4c3)cc(C(F)(F)F)c2)CC1(C)C` [8z, N-(2-(1H-Indazol-6-yl)-1H-benzo[d]imidazol-5-yl)-3–(4-ethyl-3,3-dimethylpiperazin-1-yl)-5-(trifluoromethyl)benzamide] returned a melting point of 153 to 154 °C. In addition, the IC50 on FLT3 wild type (read-out: FLT3 IC50) is 0.066 µM. The IC50 at FLT3 wild type (read-out: FLT3 wild type IC50) amounted to 0.0659 µM. Also, half-maximal inhibition on FLT3 (D835Y) (IC50) required 0.046 µM.

Regarding `O=C(Nc1ccc2[nH]c(-c3ccc4cn[nH]c4c3)nc2c1)c1ccc(Cl)c(Cl)c1` [8j, N-(2-(1H-Indazol-6-yl)-1H-benzo[d]imidazol-5-yl)-3,4-dichlorobenzamide], the melting point lay in the range of 255 to 257 °C. The IC50 on FLT3 wild type (read-out: FLT3 IC50) turned out to be 0.514 µM. On FLT3 (D835Y), this compound registered an IC50 of 0.103 µM.

`CCN1CCN(Cc2ccc(C(=O)Nc3ccc4[nH]c(-c5ccc6cn[nH]c6c5)nc4c3)cc2C(F)(F)F)CC1` [8w, N-(2-(1H-Indazol-6-yl)-1H-benzo[d]imidazol-5-yl)-4-((4-ethylpiperazin-1-yl)methyl)-3-(trifluoromethyl)benzamide] yielded a melting point of 164 to 166 °C. The IC50 at FLT3 wild type (read-out: FLT3 IC50) is 0.29 µM. Also, 0.013 µM corresponded to half-maximal inhibition on FLT3 (D835Y) (IC50).

In turn, `CCN1CCN(Cc2cc(C(=O)Nc3ccc4[nH]c(-c5ccc6cn[nH]c6c5)nc4c3)cc(C(F)(F)F)c2)CC1(C)C` [8y, N-(2-(1H-Indazol-6-yl)-1H-benzo[d]imidazol-5-yl)-3-((4-ethyl-3,3-dimethylpiperazin-1-yl)methyl)-5-(trifluoromethyl)benzamide] registered a melting point of 255 to 257 °C. For the same compound, the IC50 on FLT3 wild type (read-out: FLT3 IC50) came out at 0.145 µM. The same compound showed an IC50 on FLT3 (D835Y) of 0.042 µM.

`CN(C)C1CCN(c2cc(C(=O)Nc3ccc4[nH]c(-c5ccc6cn[nH]c6c5)nc4c3)cc(C(F)(F)F)c2)C1` (stereo not shown) [8n, N-(2-(1H-Indazol-6-yl)-1H-benzo[d]imidazol-5-yl)-3–(3-(dimethylamino)pyrrolidin-1-yl)-5-(trifluoromethyl)benzamide] returned a melting point of 283 to 285 °C. Moreover, the IC50 at FLT3 wild type (read-out: FLT3 IC50) was 0.287 µM. On FLT3 (D835Y), the IC50 is 0.113 µM.

For the compound `O=C(Nc1ccc2[nH]c(-c3ccc4cn[nH]c4c3)nc2c1)c1ccc(N2CCOCC2)c(C(F)(F)F)c1` [8f, N-(2-(1H-Indazol-6-yl)-1H-benzo[d]imidazol-5-yl)-4-morpholino-3-(trifluoromethyl)benzamide], the melting point lay in the range of 202 to 204 °C. The IC50 at FLT3 wild type (read-out: FLT3 IC50) came to 2.51 µM. At FLT3 (D835Y), this compound yielded an IC50 of 0.37 µM.

The compound `CC(C)(C)c1cc(NC(=O)Nc2ccc3[nH]c(-c4ccc5cn[nH]c5c4)nc3c2)no1` [8l, 1–(2-(1H-Indazol-6-yl)-1H-benzo[d]imidazol-5-yl)-3–(5-(tert-butyl)isoxazol-3-yl)urea] displayed a melting point of 184 to 186 °C. Also, the IC50 on FLT3 wild type (read-out: FLT3 IC50) was 1.17 µM. The same compound showed an IC50 against FLT3 (D835Y) of 0.261 µM.

The record behind these values is publication PMC8788362, “Rational design and synthesis of 2-(1H-indazol-6-yl)-1H-benzo[d]imidazole derivatives as inhibitors targeting FMS-like tyrosine kinase 3 (FLT3) and its mutants” (Journal of Enzyme Inhibition and Medicinal Chemistry, 2022).
